# Source: publication PMC9065678, “BI 1015550 is a PDE4B Inhibitor and a Clinical Drug Candidate for the Oral Treatment of Idiopathic Pulmonary Fibrosis” (Frontiers in Pharmacology, 2022)
# Key:
# Col3A1 mRNA expression = test: TGF-β-induced Col3A1 mRNA expression in IPF lung fibroblasts (Taqman); format: cell-based, human
# Description: (§1) Fibroblasts from donors with IPF (IPF-LF) (Asterand, Detroit, MI, United States) were grown in fibroblast basal medium (CC-3131, Lonza Walkersville, Inc., Walkersville, MD, United States) supplemented with FGM-2 SingleQuot Kit Supplements and Growth Factors (CC-4126, Lonza). Cells were grown in a humidified incubator at 37°C and 5% CO2. All assays were performed at passage 7 or 8. For assay set-up, cells were seeded in fibroblast growth medium plus supplements in assay-relevant densities. For TGF-β-stimulated assays, cells were seeded at 4,500 cells per well in 96-well plates. Proliferation assays were performed in 96-well plates at an initial seeding cell density on day 0 of 2,000 cells per well. After 24-h, the cell culture medium was changed to starvation medium (fibroblast basal medium without supplements). […]
# (§2) For determination of Col1A1, Col3A1, and FN mRNA expression, IPF-LF cells were stimulated with TGF-β (4 ng/mL) for 48 h. […] Quantitative real-time polymerase chain reactions were set up using the TaqMan™ Fast Advanced Master Mix (Applied Biosystems, Carlsbad, CA, United States) and species-specific gene expression assays: Col1A1 #Hs00164004_m1 FAM, Col3A1 #Hs0094309_m1 FAM, FN #Hs01549976_m1 FAM, 18S #4310893E. […] Fold-change of gene expression was calculated by the Viia7 software (regulation based upon housekeeper).
# Col1A1 mRNA expression = test: TGF-β-induced Col1A1 mRNA expression in IPF lung fibroblasts (Taqman); format: cell-based, human; conditions: IPF-LF, TGF-β 4 ng/mL, 48 h; read-out: IC50 TGF-β-induced Col1 mRNA expression
# Description: as §1, §2
# [1] = tested on: LPS-stimulated TNF-α release; test: LPS-induced TNF-α release in rat whole blood; format: cell-based; conditions: LPS 10 µg/mL
# Description: Heparinized whole blood was collected from the Aorta abdominalis of WI (Han) male rats (Charles River Laboratories, Sulzfeld, Germany) and from healthy male human donors, and treated with 1 µL (rat) or 2.5 µL (human) of BI 1015550 or vehicle [final DMSO concentration 0.5% (v/v)]. Final assay volumes were 200 μL (rat) and 500 μL (human). After incubation for 30 min at 37°C, 95% humidity, and 5% CO2, cultures were treated with LPS [final concentration 10 µg/mL (rat), 0.1 µg/mL (human)] or saline. After 7 h, plates were centrifuged at 3.200 × g at 4°C for 10 min and plasma was used for cytokine measurement. Meso Scale Discovery (MSD) (Rockville, MD, United States) rat and human pro-inflammatory panels were used for detection of TNF-α and IL-6 in rat plasma [diluted 1:2 (v/v)]) and human plasma [negative control undiluted, other samples diluted 1:200 (v/v)] according to the manufacturer’s instructions.
# IPF-LF cells = test: bFGF plus IL-1β-induced proliferation of IPF lung fibroblasts (bromodeoxyuridine assay); format: cell-based
# Description: Fibroblasts from donors with IPF (IPF-LF) (Asterand, Detroit, MI, United States) were grown in fibroblast basal medium (CC-3131, Lonza Walkersville, Inc., Walkersville, MD, United States) supplemented with FGM-2 SingleQuot Kit Supplements and Growth Factors (CC-4126, Lonza). Cells were grown in a humidified incubator at 37°C and 5% CO2. All assays were performed at passage 7 or 8. For assay set-up, cells were seeded in fibroblast growth medium plus supplements in assay-relevant densities. For TGF-β-stimulated assays, cells were seeded at 4,500 cells per well in 96-well plates. Proliferation assays were performed in 96-well plates at an initial seeding cell density on day 0 of 2,000 cells per well. After 24-h, the cell culture medium was changed to starvation medium (fibroblast basal medium without supplements). After a 24-h starvation period, cells were pre-incubated for 30 min with different concentrations of BI 1015550 plus/minus different concentrations of nintedanib and/or 1 nmol/L PGE2 and stimulated with the assay-relevant stimulus for the indicated time in the presence of the compound.
# IPF-LF cells were stimulated with bFGF (20 ng/mL) plus IL-1β (30 pg/mL). After 72 h of stimulation, 10-times concentrated bromodeoxyuridine was added and the cells were incubated for another 18 h (final concentration bromodeoxyuridine 10 μmol/L). Cell proliferation was assessed by bromodeoxyuridine assay (Roche, Mannheim, Germany) according to the instruction manual.
# PDE4A = target: T1, PDE4A (Homo sapiens, UniProt P27815); test: Recombinant PDE activity, scintillation proximity assay: PDE4A; format: biochemical; conditions: substrate [3H]cAMP, means from n independent experiments
# T1 construct: PDE4A (NG_029594, AA 156–886); made in house; host or cells: SF9 insect cells (baculovirus, Bac-To-Bac, pFastbac)
# Description: For the preparation of human recombinant PDEs of interest, the Bac-To-Bac baculoviral expression system from Invitrogen (Carlsbad, CA, United States) was used according to the instruction manual. […] The plasmids were transformed into DH10Bac bacteria, SF9 insect cells were transfected with the bacmid DNA, and the resulting baculoviruses were stored and used for further rounds of infections. For protein production, SF9 cells were infected until a cytopathic effect was visible (after about 72 h), the SF9 cells were harvested and broken up by 3 freeze/thaw cycles, and by shearing 10 times through a 0.1 mm cannula using a syringe. […] The Phosphodiesterase Scintillation Proximity Assays (TRKQ7090 for [^3H]cAMP, GE Healthcare Europe GmbH, Chalfont St Giles, United Kingdom, and TRKQ7100 for [^3H]cGMP, Perkin Elmer, Waltham, MA, United States) were performed essentially according to the instruction manual. […] Assay solutions containing recombinant baculoviral-expressed PDE (to give an activity of 5.000–20.000 cpm corresponding to 5–20% of total activity added), 50 mmol/L Tris/HCl pH 7.5, 8.3 mmol/L MgCl2, 1.7 mmol/L EGTA, and 10 µL radiolabeled substrate (0.05 µCi in H2O) were incubated for 1 h at 30°C (final volume 100 μL).
# PDE2A = target: T2, PDE2A (Homo sapiens, UniProt O00408); test: PDE2A inhibition screen at Eurofins Cerep; format: biochemical; conditions: screened at Eurofins Cerep
# T2 construct: Eurofins Cerep
# T2 sequence (O00408 whole entry): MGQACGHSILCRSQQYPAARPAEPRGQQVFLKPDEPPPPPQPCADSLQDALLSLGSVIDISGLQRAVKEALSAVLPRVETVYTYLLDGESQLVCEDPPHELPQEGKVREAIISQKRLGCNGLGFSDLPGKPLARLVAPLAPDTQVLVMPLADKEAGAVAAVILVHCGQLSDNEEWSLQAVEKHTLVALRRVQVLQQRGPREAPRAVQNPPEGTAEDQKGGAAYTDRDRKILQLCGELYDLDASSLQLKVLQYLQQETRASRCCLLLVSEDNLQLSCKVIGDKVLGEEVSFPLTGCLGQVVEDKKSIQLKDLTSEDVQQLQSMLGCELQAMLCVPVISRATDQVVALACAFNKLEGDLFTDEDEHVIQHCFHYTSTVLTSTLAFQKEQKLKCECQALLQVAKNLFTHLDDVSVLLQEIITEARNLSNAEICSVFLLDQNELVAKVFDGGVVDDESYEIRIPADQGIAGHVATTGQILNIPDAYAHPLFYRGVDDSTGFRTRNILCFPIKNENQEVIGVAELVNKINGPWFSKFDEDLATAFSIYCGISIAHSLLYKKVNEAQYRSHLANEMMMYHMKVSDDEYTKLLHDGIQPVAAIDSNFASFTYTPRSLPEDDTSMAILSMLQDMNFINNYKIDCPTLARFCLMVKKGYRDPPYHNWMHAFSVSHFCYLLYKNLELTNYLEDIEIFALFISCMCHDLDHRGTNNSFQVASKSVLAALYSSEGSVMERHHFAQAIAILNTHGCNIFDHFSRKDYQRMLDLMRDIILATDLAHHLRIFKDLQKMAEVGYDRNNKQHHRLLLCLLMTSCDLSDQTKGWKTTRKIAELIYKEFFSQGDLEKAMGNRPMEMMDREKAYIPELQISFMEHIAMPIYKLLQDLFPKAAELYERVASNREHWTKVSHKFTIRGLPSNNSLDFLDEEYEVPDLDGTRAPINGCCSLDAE
# T1 sequence (P27815 156-886): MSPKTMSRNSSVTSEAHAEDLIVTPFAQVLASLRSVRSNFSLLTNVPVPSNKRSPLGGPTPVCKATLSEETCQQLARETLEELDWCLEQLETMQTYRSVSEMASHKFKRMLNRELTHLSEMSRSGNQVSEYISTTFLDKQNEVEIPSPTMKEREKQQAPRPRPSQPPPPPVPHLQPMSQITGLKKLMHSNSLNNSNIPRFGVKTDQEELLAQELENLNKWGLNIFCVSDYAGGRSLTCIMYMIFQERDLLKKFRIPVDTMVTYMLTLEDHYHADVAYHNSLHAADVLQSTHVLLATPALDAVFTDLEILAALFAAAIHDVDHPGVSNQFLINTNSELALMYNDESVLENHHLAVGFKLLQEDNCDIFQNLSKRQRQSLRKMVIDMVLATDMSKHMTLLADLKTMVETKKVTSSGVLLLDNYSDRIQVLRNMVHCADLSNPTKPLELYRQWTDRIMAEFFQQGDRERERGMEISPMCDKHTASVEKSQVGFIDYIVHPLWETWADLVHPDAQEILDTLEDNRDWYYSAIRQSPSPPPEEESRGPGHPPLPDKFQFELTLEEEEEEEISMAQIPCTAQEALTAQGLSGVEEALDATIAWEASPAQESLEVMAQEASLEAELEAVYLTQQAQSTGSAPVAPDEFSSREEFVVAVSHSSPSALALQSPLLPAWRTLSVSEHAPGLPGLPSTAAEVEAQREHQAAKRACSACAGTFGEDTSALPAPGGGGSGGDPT
smiles,measurement,setting,value
[O-][S+]1CCc2nc(N3CCC(c4ncc(Cl)cn4)CC3)nc(NC3(CO)CCC3)c21 (stereo not drawn) [BI 1015550],IC50,"Col3A1 mRNA expression; IPF-LF, TGF-β 4 ng/mL, 48 h, read-out: IC50 TGF-β-induced Col3 mRNA expression",213 nM
same,Combination effect in inhibiting Col3 mRNA expression,Col3A1 mRNA expression; combination with nintedanib at 100 nmol/L,additive effects
same,IC50,Col1A1 mRNA expression,269 nM
same,Extent of inhibition of TNF-α release,[1],completely inhibited
same,IC50,[1],91 nM
same,IC50,"IPF-LF cells; IPF-LF, alone, read-out: IC50 bFGF plus IL-1β-induced cell proliferation",255 nM
same,"Additional inhibitory effects in combination, proliferation assay","IPF-LF cells; combination with pirfenidone (100 µmol/L), data not shown",did not yield any additional inhibitory effects
same,IC50,PDE4A,248 nM
same,Inhibition of human PDE2A,PDE2A,did not inhibit
